Patent US7381554B2, “UDP-N-acetylglucosamine: galactose-β1,3-N-acetylgalactosamine-α-R/N-acetylglucosamine-β1,3-N-acetylgalactosamine-α-R (GlcNAc to GalNAc) β1,6-N-acetylglucosaminyltransferase, C2/4GnT” (Glycozym ApS, priority 1998, dated 2008)

How the values were obtained:
C2GnT = target: T1, C2GnT (Homo sapiens, UniProt Q02742); test: C2GnT GlcNAc-transferase activity assay with acceptor substrates; type: biochemical; details: partially purified media of infected High Five cells, background subtracted; for Substrate specificity: C2GnT activity, 2 mM: acceptor substrate 2 mM; for Substrate specificity: C2GnT activity, 10 mM: acceptor substrate 10 mM
T1 construct: Plasmids pAcGP67-C2/4GnT-sol and pAcGP67-C2GnT-sol were co-transfected with; gp67 secretion signal of vector pAcGP67 (own knowledge of the vector); made in house; host or cells: Sf9 cells (baculovirus, culture supernatant)
T1 sequence (Q02742 33-428 limits assumed): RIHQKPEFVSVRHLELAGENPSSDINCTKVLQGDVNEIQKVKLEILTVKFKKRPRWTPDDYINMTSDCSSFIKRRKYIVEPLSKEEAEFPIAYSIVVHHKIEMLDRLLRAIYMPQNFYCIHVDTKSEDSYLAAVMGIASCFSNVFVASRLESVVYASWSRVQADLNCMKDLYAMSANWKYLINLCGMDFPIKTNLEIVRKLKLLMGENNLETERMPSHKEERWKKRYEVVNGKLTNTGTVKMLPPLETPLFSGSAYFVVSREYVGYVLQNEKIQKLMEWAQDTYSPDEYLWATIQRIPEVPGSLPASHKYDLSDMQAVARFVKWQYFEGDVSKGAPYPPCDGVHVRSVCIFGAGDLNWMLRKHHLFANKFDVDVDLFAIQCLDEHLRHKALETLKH
Method: (§1) Controls included the pAcGP67-GalNAc-T3-sol (15). The kinetic properties were determined with partially purified enzymes expressed in High Five™ cells. Partial purification was performed by consecutive chromatography on Amberlite IRA-95, DEAE-Sephacryl and CM-Sepharose essentially as described (16).
(§2) An expression construct designed to encode amino acid residues 31-438 of C2/4GnT was prepared by PCR using P1 DNA, and the primer pair TSHC55 (5′-[…]-3′) (SEQ ID NO:8) and TSHC45 (SEQ ID NO:5) (FIG. 2). The PCR product was cloned into the EcoRI site of pAcGP67A (PharMingen), and the insert was fully sequenced. Plasmids pAcGP67-C2/4GnT-sol and pAcGP67-C2GnT-sol were co-transfected with Baculo-Gold™ DNA (PharMingen) as described previously (14). Recombinant Baculo-virus were obtained after two successive amplifications in Sf9 cells grown in serum-containing medium, and titers of virus were estimated by titration in 24-well plates with monitoring of enzyme activities. Controls included the pAcGP67-GalNAc-T3-sol (15).
(§3) Standard assays were performed using culture supernatant from infected cells in 50 μl reaction mixtures containing 100 mM MES […], 10 mM EDTA, 10 mM 2-Acetamido-2-deoxy-D-glucono-1,5-lacton, 180 μM UDP-[^14C]-GlcNAc (6,000 cpm/nmol) (Amersham Pharmacia Biotech), and the indicated concentrations of acceptor substrates (Sigma and Toronto Research Laboratories Ltd., see Table I for structures). Semi-purified C2/4GnT was assayed in 50 μl reaction mixtures containing 100 mM MES (pH 7), 5 mM EDTA, 90 μM UDP-[^14C]-GlcNAc (3,050 cpm/nmol) (Amersham Pharmacia Biotech), and the indicated concentrations of acceptor substrates. Reaction products were quantified by chromatography on Dowex AGI-X8.

C2/4GnT = target: T2, C2/4GnT (Homo sapiens, UniProt O95395); test: C2/4GnT GlcNAc-transferase activity assay with acceptor/donor substrates; type: biochemical; details: for Substrate specificity: C2/4GnT activity, 2 mM: acceptor substrate 2 mM; for Substrate specificity: C2/4GnT activity, 2 mM / Substrate specificity: C2/4GnT activity, 10 mM: partially purified media of infected High Five cells, background subtracted; for Substrate specificity: C2/4GnT activity, 10 mM: acceptor substrate 10 mM; for C2/4GnT activity with acceptor substrate (in words): as acceptor substrate; for C2/4GnT activity with donor substrate (in words): as donor substrate, data not shown; for Substrate inhibition of C2/4GnT enzyme activity: high acceptor concentrations up to 20 mM
T2 construct: An expression construct designed to encode amino acid residues 31-438 of C2/4GnT was prepared by PCR using P1 DNA; gp67 secretion signal of vector pAcGP67A (own knowledge of the vector); made in house; host or cells: Sf9 cells (culture supernatant, standard assays); High Five cells (partially purified enzyme, kinetics)
T2 sequence (O95395 31-438): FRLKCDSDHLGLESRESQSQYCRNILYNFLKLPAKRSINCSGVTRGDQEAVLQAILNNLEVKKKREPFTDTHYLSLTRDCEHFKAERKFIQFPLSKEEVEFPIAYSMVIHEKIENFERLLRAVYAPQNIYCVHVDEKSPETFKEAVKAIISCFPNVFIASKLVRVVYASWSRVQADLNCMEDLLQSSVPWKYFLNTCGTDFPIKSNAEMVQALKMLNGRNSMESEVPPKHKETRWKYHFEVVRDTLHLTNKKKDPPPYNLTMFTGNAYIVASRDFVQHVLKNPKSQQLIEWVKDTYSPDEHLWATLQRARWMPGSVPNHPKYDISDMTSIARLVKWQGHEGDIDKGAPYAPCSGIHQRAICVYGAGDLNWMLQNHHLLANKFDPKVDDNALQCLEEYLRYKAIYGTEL
Method: as §2, with “sequenced.” for “sequenced. Plasmids”, “was” for “and pAcGP67-C2GnT-sol were”, “activities.” for “activities. Controls included the pAcGP67-GalNAc-T3-sol (15).”
as §1, §2, §3

Compound | Substrate specificity: C2GnT activity, 2 mM (C2GnT) [nmol/h/mg] | Substrate specificity: C2GnT activity, 10 mM (C2GnT) [nmol/h/mg] | Substrate specificity: C2/4GnT activity, 2 mM (C2/4GnT) [nmol/h/mg] | Substrate specificity: C2/4GnT activity, 10 mM (C2/4GnT) [nmol/h/mg] | C2/4GnT activity with acceptor substrate (in words) (C2/4GnT) | C2/4GnT activity with donor substrate (in words) (C2/4GnT) | Substrate inhibition of C2/4GnT enzyme activity (C2/4GnT)
CC(=O)N[C@H]1[C@H](O[C@H]2[C@@H](O)[C@@H](CO)O[C@@H](O[C@H]3[C@H](O)[C@@H](O)C(O)O[C@@H]3CO)[C@@H]2O)O[C@H](CO)[C@@H](O[C@@H]2O[C@H](CO)[C@H](O)[C@H](O)[C@H]2O)[C@@H]1O (mixture of isomers) [lacto-N-neo-tetraose] | <0.1 | <0.1 | <0.1 | <0.1 | no activity | – | –
CC(=O)N[C@H]1C(O)O[C@H](CO)[C@H](O)[C@@H]1O (stereo partly drawn) [D-GalNAc] | <0.1 | <0.1 | <0.1 | <0.1 | – | – | –
CC(=O)N[C@H]1[C@@H](OP(=O)(O)OP(=O)(O)OC[C@H]2O[C@@H](n3ccc(=O)[nH]c3=O)[C@H](O)[C@@H]2O)O[C@H](CO)[C@H](O)[C@@H]1O [UDP-GalNAc] | – | – | – | – | – | no activity | –
CC(=O)N[C@H]1[C@@H](OP(=O)(O)OP(=O)(O)OC[C@H]2O[C@@H](n3ccc(=O)[nH]c3=O)[C@H](O)[C@@H]2O)O[C@H](CO)[C@@H](O)[C@@H]1O [UDP-GlcNAc, UDP-N-acetylglucosamine] | – | – | – | – | – | strict donor substrate specificity | –
CC(=O)N[C@H]1[C@@H](Oc2ccc([N+](=O)[O-])cc2)O[C@H](CO)[C@H](O)[C@@H]1O [α-D-GalNAc-1-p-Nph] | <0.1 | <0.1 | <0.1 | <0.1 | no activity | – | –
CC(=O)N[C@H]1[C@@H](Oc2ccc([N+](=O)[O-])cc2)O[C@H](CO)[C@H](O)[C@@H]1O[C@@H]1O[C@H](CO)[C@H](O)[C@H](O)[C@H]1O [β-D-Gal-(1-3)-α-D-GalNAc-1-p-Nph] | 16.2 | 23.6 | 16.1 | 21.8 | – | – | No substrate inhibition
CC(=O)N[C@@H]1[C@@H](O[C@@H]2O[C@H](CO)[C@H](O)[C@H](O)[C@H]2O)[C@@H](O)[C@@H](CO)O[C@@H]1O [β-D-Gal-(1-3)-α-D-GalNAc] | 9.6 | 19.0 | 2.8 | 7.3 | – | – | –
CC(=O)NC1C(OC2C(O)C(CO)OC(Oc3ccc([N+](=O)[O-])cc3)C2NC(C)=O)OC(CO)C(O)C1O [β-D-GlcNAc-(1-3)-α-D-GalNAc-1-p-Nph] | <0.1 | <0.1 | 5.2 | 7.4 | – | – | No substrate inhibition
CO[C@@H]1O[C@H](CO)[C@H](O)[C@H](O[C@@H]2O[C@H](CO)[C@@H](O)[C@H](O)[C@H]2NC(C)=O)[C@H]1O [β-D-GlcNAc-(1-3)-β-D-Gal-1-Me] | <0.1 | <0.1 | <0.1 | <0.1 | no activity | – | –
